This data set can be described thus: in vitro. Particulars: human, hela cells, % viability.

As to `CCNc1cc(-c2cccc(N(C)C)c2)ncn1` [CBK090878], the viability at 28.5 h, 10 µM turned out to be 97.8%.
Still for that read-out and setting: under `Cn1nc2n(c1=O)CC(C(=O)NCCN1CCCc3ccccc31)CC2` (stereo not drawn) [CBK307206] stands 93.5%; under `N#CCCOc1nc2ccccc2nc1N1CCCC1` [CBK115763], 96.2%.
Take `COCCNC(=O)c1nn(-c2cccc(C(C)C)c2)cc1O` [CBK304884]: the viability at 28.5 h, 10 µM came out at 90.8%.
Turning to `CCN(CCn1cccn1)c1nc2nonc2nc1N(C)C` [CBK306630], the viability at 28.5 h, 10 µM was found to be 88.9%.
Take `NS(=O)(=O)c1ccc(CNC(=O)c2cc(-c3cccc(Cl)c3)nc3ccccc23)cc1` [CBK267774]: the viability at 28.5 h, 10 µM turned out to be 88.7%.
As for `CCCn1nc(C)c(-c2cncn2CC(C)N2CCCCC2)c1C` (stereo not drawn) [CBK281802], the viability at 28.5 h, 10 µM is 95.7%.
On the same count and under the same terms, then `COc1ccc(NC(=O)CSc2nc(O)cc(=O)[nH]2)cc1` [CBK261747], with 88.8%; and `CC(C)(C)OC(=O)N1CCC2(CC1)N=C(c1ccccc1)C(=S)N2` [CBK288478], with 112%; and `CC(=O)Nc1ccc(S(=O)(=O)N2CCN(Cc3ccccc3[N+](=O)[O-])CC2)cc1` [CBK264170], with 89.3%.
Consider `O=C(Cn1cc(C(=O)NC2(c3ccccc3)CCCC2)ccc1=O)NC1CCCCC1` [CBK285986], for which the viability at 28.5 h, 10 µM is 82.6%.
On to `NS(=O)(=O)c1ccccc1NC(=O)NC1CCCCC1` [CBK016919], for which the viability at 28.5 h, 10 µM came out at 93.4%.
The same measure, in the same setting: under `COCCCNCC#CCOc1ccccc1OC` [CBK267419G] stands 94.5%; under `Clc1ccccc1CN1CCC(n2cnc3cccnc32)CC1` [CBK283967], 105%.
Regarding `CCC(NC(=O)C(C)n1cc(Cl)cn1)c1ccc(OC)cc1` (stereo not drawn) [CBK282029], the viability at 28.5 h, 10 µM came out at 95.3%.
For the molecule `COc1ccc(C2CCN(CC(=O)N3CCCC3)CC2)cc1` [CBK283561], the viability at 28.5 h, 10 µM is 101%.
Same read-out and setting: then `Cc1cc(N2CCCC2)ccc1NC(=O)CCn1c(-c2cccs2)n[nH]c1=S` [CBK297883], with 86.6%; and `Cc1ccc(C(=O)Nc2ccccc2)cc1S(=O)(=O)N1CCN(C)CC1` [CBK270076], with 90.2%; and `COCCNS(=O)(=O)c1cccc2c1CN(C(=O)CC1CCCC1)CC2` [CBK306982], with 101%.
Same read-out and setting: under `COc1ccc(C2=NNC(=O)C(c3ccc(OC)cc3)C2)cc1` (stereo not drawn) [CBK287908] stands 99.7%; under `Nc1nc(SCCCC(=O)NC2CCCCC2)nc2sc3c(c12)CCCC3` [CBK266176], 99.7%.
For `Cc1ccccc1C(=O)NC(=S)NCCN1CCOCC1` [CBK288475], the viability at 28.5 h, 10 µM was 94.5%.
As for `CN1CCN(CC(=O)N/N=C/C2CC=CCC2)CC1` (stereo not drawn) [CBK019340], the viability at 28.5 h, 10 µM came to 89.6%.
In the case of `CCCCSc1nc(N)cc(N2CCCC(N3CCCC3=O)C2)n1` (stereo not drawn) [CBK306995], the viability at 28.5 h, 10 µM amounted to 95.5%.
Same read-out and setting: then `Cc1cc(C)nc(Nc2n[nH]c(-c3cccc4ccccc34)n2)n1` [CBK266451], with 99.3%; and `Cc1cccc(NC(=S)N2CCN(Cc3ccc4c(c3)OCO4)CC2)c1C` [CBK264919], with 82.7%.
With `CCOC(=O)c1ccc(-c2ccc(OC)cc2)cc1` [CBK002658], the viability at 28.5 h, 10 µM was 95.2%.
For `Cc1cc(CNS(=O)(=O)c2ccc(-c3ccon3)s2)no1` [CBK062276], the viability at 28.5 h, 10 µM was found to be 103%.
`COc1cccc(CNC(=O)NC(=O)C2CCN(C)CC2)c1` [CBK034828]: the viability at 28.5 h, 10 µM is 91.9%.
Same read-out and setting: then `O=C(Nc1ccc(N2CCNCC2)nc1)C1CCCO1` (stereo not drawn) [CBK004748T], with 85.7%.
`O=C1CN(C(=O)NCc2ccc(F)cc2)CCN1` [CBK155869]: the viability at 28.5 h, 10 µM was found to be 88.2%.
Turning to `Cc1nc(-c2nnc(NC(=O)COc3ccc(Cl)cc3Cl)o2)cs1` [CBK287843], the viability at 28.5 h, 10 µM is 109%.
Turning to `COc1cc(Cl)cc(CNCCO)c1OC(C)C` [CBK269196C], the viability at 28.5 h, 10 µM stood at 86.7%.
Take `CCCn1cc(CN2C3CCC2CC(O)(c2ccccc2F)C3)cn1` (stereo not drawn) [CBK282664]: the viability at 28.5 h, 10 µM amounted to 99.3%.
Same read-out and setting: under `COCC(=O)Nc1ccc([C@@H](O)[C@H]2COCC(=O)N2C)cc1` [CBK289058] stands 106%; under `CC(C)(C)OC(=O)N1CCCC(c2nc3ccccc3cc2N)C1` (stereo not drawn) [CBK284711], 96.7%.
The same measure, in the same setting: under `COc1ccc([C@@]23CC[C@@H](NC(=O)c4ccc(F)c(C(F)(F)F)c4)C[C@@H]2N(C)CC3)cc1OC` [CBK074967T] stands 93.6%; under `COCC1CCCN(Cc2cn(C)nc2C(C)(C)C)C1` (stereo not drawn) [CBK304818], 108%.
Consider `COc1cccc(C(=O)N2CCN(C(=O)c3cccc(F)c3)CC2)c1OC` [CBK263316], for which the viability at 28.5 h, 10 µM came to 105%.
The same measure, in the same setting: then `Cc1cc(Cl)c(OCCNCCO)c(Br)c1` [CBK265066G], with 122%; and `CC(C)(C)OC(=O)N1CCCN(c2ccc(S(=O)(=O)c3ccccc3)c([N+](=O)[O-])c2)CC1` [CBK138502], with 99.2%.
For `CCN(C(C)COC)S(=O)(=O)c1ccc(C(F)(F)F)nc1` (stereo not drawn) [CBK304042], the viability at 28.5 h, 10 µM is 88.8%.
The same measure, in the same setting: then `Cc1c(NC(=O)CSc2nncn2C)ccc2nsnc12` [CBK269418], with 104%.
On to `CCOC(=O)C1(c2ccccc2)CCN(C(=O)Cc2c[nH]cn2)CC1` [CBK132205], for which the viability at 28.5 h, 10 µM (bulk resorufin, single well) is 94.3%.
Turning to `S=C(NCc1ccccc1)Nc1ccccc1` [CBK091617], the viability at 28.5 h, 10 µM came out at 105%.
In the case of `COc1ccc(C(=O)O)cc1S(=O)(=O)N1CCCCCC1` [CBK261742], the viability at 28.5 h, 10 µM worked out at 99.2%.
Regarding `CC(Oc1ccc(-c2ccccc2)cc1)C(=O)Nc1ccc(S(N)(=O)=O)cc1` (stereo not drawn) [CBK267979], the viability at 28.5 h, 10 µM came to 87.2%.
On the same count and under the same terms, under `CC(=O)c1ccc(-c2nccnc2NCc2cccc([N+](=O)[O-])c2)s1` [CBK037509] stands 106%; under `C=CCOc1ccc(-c2nn(-c3ccccc3)cc2/C=C2/SC(=S)N(CC(=O)O)C2=O)c(C)c1` [CBK265062], 95.8%.
Take `Cc1csc(C(Cc2ccsc2)NC(=O)c2cnn(C)c2C)n1` (stereo not drawn) [CBK285148]: the viability at 28.5 h, 10 µM came out at 104%.
For `Cn1c(=O)cc(Oc2ccc(F)cc2)c2ccccc21` [CBK281451], the viability at 28.5 h, 10 µM was found to be 88.1%.
On the same count and under the same terms, under `CC1(C(=O)NC(c2ccncc2)c2ccc(Cl)cc2)CCCO1` (stereo not drawn) [CBK282710] stands 89.5%.
Regarding `CN(C)c1ccc(C=C2CCCC3C2=NN(C(=O)CCC(=O)O)C3c2ccc(N(C)C)cc2)cc1` (stereo not drawn) [CBK296065], the viability at 28.5 h, 10 µM came to 86.8%.
Same read-out and setting: under `NC1=C(N)OC(Oc2ccccc2C(F)(F)F)=NN1` [CBK018424] stands 57.2%; under `CC(C)CS(=O)(=O)Nc1ccc(F)cc1F` [CBK020615], 91.9%.
On to `Cc1cc(F)c(S(=O)(=O)NCCN2CCOCC2)cc1NC(=O)c1ccc(Br)o1` [CBK059091C], for which the viability at 28.5 h, 10 µM worked out at 89.7%.
For `Nc1cc2cc(F)ccc2nc1C1CCN(C(=O)C2CC2)CC1` [CBK284657], the viability at 28.5 h, 10 µM amounted to 93.4%.
`NC(=O)CCC(NC=O)C(=O)O` (stereo not drawn) [CBK260967]: the viability at 28.5 h, 10 µM worked out at 88.4%.
On the same count and under the same terms, then `Nc1nnc(Sc2nccc(C(F)(F)F)n2)s1` [CBK020023], with 99.5%; and `CN(C)S(=O)(=O)NC1CC(C)(C)Cc2c1cnn2-c1ccccc1` (stereo not drawn) [CBK307533], with 94.5%; and `CN(C)C(CNCc1cn(C)nc1-c1cccnc1)c1ccccc1` (stereo not drawn) [CBK304511], with 84.8%.
Still for that read-out and setting: then `Nc1cc(S(=O)(=O)C(F)(F)F)ccc1C(=O)O` [CBK286646], with 87%.
On the same count and under the same terms, under `COc1cc(CNC(=O)Cn2nnc(-c3ccc(CN4CCC(C)CC4)cc3)n2)cc(OC)c1OC` [CBK144170C] stands 96.5%.
`CN1CCN(c2ccc(NC(=O)c3cccc(-c4cc5ccccc5oc4=O)c3)cc2Cl)CC1` [CBK269689]: the viability at 28.5 h, 10 µM was found to be 83.5%.
Take `CCN(CC)c1ccc(CN(CCCN(C)C)C(=O)NCC2CCCCC2)cc1` [CBK159392]: the viability at 28.5 h, 10 µM stood at 106%.
Consider `CC(C)CCN1CCC2CN(CCCC(c3ccc(F)cc3)c3ccc(F)cc3)CCN2C1=O` (stereo not drawn) [CBK024898C], for which the viability at 28.5 h, 10 µM was found to be 102%.
With `c1ccc(C2=Nn3c(Cn4nnc5ccccc54)nnc3SC2)cc1` [CBK268232], the viability at 28.5 h, 10 µM came out at 91.7%.
As to `NC(=O)C[N+]1(CC#CC(O)(c2ccccc2)c2ccccc2)CCCC1` [CBK262703I], the viability at 28.5 h, 10 µM turned out to be 95.3%.
In the case of `O=C1N(CN2CCN(C(c3ccccc3)c3ccccc3)CC2)c2ccccc2C12OCCO2` [CBK265537], the viability at 28.5 h, 10 µM came out at 87.1%.
Same read-out and setting: then `COc1ccc(C(NC(=O)c2cn3ccsc3n2)[C@H]2C[C@H](O)C2)cn1` (stereo partly drawn) [CBK306744], with 101%; and `CC1(NC(=O)CC(c2ccncc2)c2c[nH]c3ccccc23)CCC1` (stereo not drawn) [CBK281610], with 88.8%.
Consider `CS(=O)(=O)Nc1nccnc1OC1CCN(CC2CCCCC2)CC1` [CBK084284], for which the viability at 28.5 h, 10 µM worked out at 89.9%.
The same measure, in the same setting: then `CCOC(=O)c1cn(CC2CC2)c2cc(F)c(F)cc2c1=O` [CBK304195], with 98.1%; and `NCc1ccc(CN(Cc2cccc(Cl)c2)C(=O)NC(c2ccccc2)c2ccccc2)cc1` [CBK046087C], with 91.6%; and `N#C/C(=C\c1ccc(OCC(=O)c2ccc(F)cc2)cc1)c1nc(-c2cc3ccccc3oc2=O)cs1` [CBK266769], with 90.6%.
On the same count and under the same terms, then `c1csc(-c2cncc(NCc3ccncc3)n2)c1` [CBK065583], with 94.6%; and `CCn1nc(C)c(CN2CCCC(c3cc4cccnc4[nH]3)C2)c1C` (stereo not drawn) [CBK284977], with 107%; and `Nc1c(Cc2c(Cl)cccc2Cl)c(=O)n2n1CCC2` [CBK088948], with 98.9%.
Consider `COc1ccc(CCNC(=O)CCn2nc(C)c(Cl)c2C)cc1C` [CBK281643], for which the viability at 28.5 h, 10 µM was determined as 89.5%.
For the molecule `CCc1c(C)c2cc(Cl)c(O)c(CN3CCCC3)c2oc1=O` [CBK267099], the viability at 28.5 h, 10 µM came out at 105%.
Regarding `C=CCNc1nc(NCCN2CCOCC2)nc(N2CCOCC2)n1` [CBK263074], the viability at 28.5 h, 10 µM worked out at 112%.

For the origin of these results see publication PMC12040169 (PLOS Biology, 2025).
